Experimental data from US8772318B2, “Methods and compositions related to targeting monoacylglycerol lipase” (The Scripps Research Institute, priority 2008, dated 2014).

What was measured:
ABHD6 = biological target: T1, ABHD6 (Mus musculus, UniProt Q8R2Y0); assay: Competitive ABPP, mouse brain membrane proteome; assay type: biochemical
T1 construct: from tissue; host or cells: mouse brain membrane fraction
T1 sequence (Q8R2Y0 1-336): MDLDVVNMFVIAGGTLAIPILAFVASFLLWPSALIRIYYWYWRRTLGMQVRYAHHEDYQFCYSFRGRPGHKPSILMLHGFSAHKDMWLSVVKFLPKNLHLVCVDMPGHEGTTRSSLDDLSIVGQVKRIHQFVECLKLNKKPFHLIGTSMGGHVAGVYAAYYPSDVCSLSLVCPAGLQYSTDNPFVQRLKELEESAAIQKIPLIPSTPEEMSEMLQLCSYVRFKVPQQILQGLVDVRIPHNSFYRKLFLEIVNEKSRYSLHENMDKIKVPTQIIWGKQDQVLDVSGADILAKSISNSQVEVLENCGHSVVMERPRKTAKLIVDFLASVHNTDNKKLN
Excerpt: (§1) First, serine hydrolases are susceptible to covalent inactivation by specific chemical groups that show little or no cross-reactivity with other enzyme classes. […] Second, the functional state of serine hydrolases can be collectively profiled in native biological systems using activity-based protein profiling (ABPP) methods (Cravat et al., Annu Rev Biochem 77:383-414, 2008). ABPP of serine hydrolases uses reporter-tagged fluorophosphonates (FPs), which serve as general activity-based probes for this large and diverse enzyme class (Liu et al., Proc. Natl. Acad. Sci. U.S.A. 96:14694-9, 1999). When performed in a competitive mode, ABPP can serve as a powerful screen to evaluate the potency and selectivity of small-molecule enzyme inhibitors directly in complex proteomes. The screen can be performed as described in the art, e.g., Liu et al., Proc. Natl. Acad. Sci. U.S.A. 96:14694-9, 1999; Li et al., J. Am. Chem. Soc. 129:9594-5, 2007; Leung et al., Nat. Biotech. 21:687-91, 2003; and Greenbaum et al., Mol. Cell. Proteomics 1:60-68, 2002.
(§2) Competitive activity-based protein profiling (ABPP) experiments. In vitro inhibitor selectivity was examined using a competitive ABPP method as described in the art (e.g., Li et al., J. Am. Chem. Soc. 129:9594-5, 2007; and Leung et al., Nat. Biotech. 21:687-91, 2003). Briefly, mouse brain membrane proteomes, prepared as described herein, were diluted to 1 mg/ml in PBS and pre-incubated with varying concentrations of inhibitors (1 nM to 10 μM) for 30 min at 37° C. prior to the addition of a FP-rhodamine at a final concentration of 2 μM in a 50 μl of total reaction volume. After 30 min at room temperature, the reactions were quenched with 4×SDS-PAGE loading buffer, boiled for 5 min at 90° C., subjected to SDS-PAGE, and visualized in-gel using a flatbed fluorescence scanner.
(§3) Every 10 min, 50 ul of the reaction was removed and treated with FP-rhodamine (2 μM) for 2 min, quenched with 4×SDS-PAGE loading buffer, and boiled for 5 min at 90° C. The combined reactions were subjected to SDS-PAGE and visualized in-gel using a flatbed fluorescence scanner. The percentage activity remaining was determined by measuring the integrated optical density corresponding to the MAGL or FAAH bands and the results were fit to an exponential curve to determine the pseudo-first order rate constants.

FAAH = biological target: T2, FAAH (Mus musculus, UniProt O08914); assay: Competitive ABPP, mouse brain membrane proteome; assay type: biochemical
T2 construct: from tissue; host or cells: mouse brain membrane fraction
T2 sequence (O08914 1-579): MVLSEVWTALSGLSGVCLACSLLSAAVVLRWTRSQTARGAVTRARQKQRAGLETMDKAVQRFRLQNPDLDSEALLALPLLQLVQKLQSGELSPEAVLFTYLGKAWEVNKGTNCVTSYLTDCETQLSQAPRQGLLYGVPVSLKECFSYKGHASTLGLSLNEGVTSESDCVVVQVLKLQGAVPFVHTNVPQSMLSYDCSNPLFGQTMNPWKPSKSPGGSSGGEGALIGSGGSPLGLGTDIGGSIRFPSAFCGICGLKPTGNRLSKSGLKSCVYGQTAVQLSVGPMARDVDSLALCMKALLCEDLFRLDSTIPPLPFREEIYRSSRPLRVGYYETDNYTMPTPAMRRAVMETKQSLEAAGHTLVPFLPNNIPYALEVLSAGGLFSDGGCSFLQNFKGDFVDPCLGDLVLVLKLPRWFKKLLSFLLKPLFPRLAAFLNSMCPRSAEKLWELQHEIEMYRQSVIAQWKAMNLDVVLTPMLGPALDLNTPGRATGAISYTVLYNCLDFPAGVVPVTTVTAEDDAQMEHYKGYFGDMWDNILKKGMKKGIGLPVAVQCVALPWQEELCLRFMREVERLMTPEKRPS
Excerpt: as §1, §2, §3

MAGL [1] = biological target: T3, MAGL (Mus musculus, UniProt O35678); assay: Competitive ABPP, mouse brain membrane proteome; assay type: biochemical
T3 construct: from tissue; host or cells: mouse brain membrane fraction (C57Bl/6 mice for the in vivo studies)
T3 sequence (O35678 1-303): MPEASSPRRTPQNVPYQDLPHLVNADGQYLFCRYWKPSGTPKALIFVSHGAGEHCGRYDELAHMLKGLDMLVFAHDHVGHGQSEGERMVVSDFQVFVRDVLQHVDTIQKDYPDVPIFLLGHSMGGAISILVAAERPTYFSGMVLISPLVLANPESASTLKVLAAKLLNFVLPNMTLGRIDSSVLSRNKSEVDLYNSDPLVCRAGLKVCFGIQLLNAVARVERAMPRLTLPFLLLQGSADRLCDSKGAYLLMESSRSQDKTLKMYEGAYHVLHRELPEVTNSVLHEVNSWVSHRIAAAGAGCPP
Excerpt: as §1, §2, §3

[2] = tested on: human cancer cell lines (C8161, SKOV3, 231MFP, MUM2C, OVCAR3); assay: Lipid measurements in cancer cells; assay type: cell-based; details: aggressive melanoma, ovarian, breast cancer cells
Protocol: Pharmacological inhibition of MAGL in cancer cells. Pharmacological inhibition studies were conducted as described previously (Chiang et al., Chem. Biol. 13:1041-1050, 2006). Cancer cells were maintained in RPMI medium 1640 with 10% (v/v) fetal calf serum at 37° C. in a humidified atmosphere of 5% CO2/95% air. At 80% confluency, cells were trypsinized and counted using a hemocytometer, and 1×10^6 cells were plated in 6 cm dishes (subconfluent). […] After incubation for 4 hr, the cells were harvested and analyzed by ABPP or LC-MS.
Lipid measurements in cancer cells. Lipid measurements were conducted similarly to protocols described previously (Chiang et al., 2006; supra). Cancer cells were grown in serum-free media for 4 hrs to minimize the contribution of serum-derived lipids to the cellular profiles. The cells (1×10^6 cells/6 cm dish, 80% confluency) were washed with twice with phosphate buffer saline (PBS), isolated by centrifugation at 1,400×g, and dounce-homogenized in 4 ml of a 2:1:1 mixture of chloroform:methanol:Tris buffer. Samples were homogenized in the presence of the following synthetic standards: C12:0 MAGE (10 nmol), C15:0 FFA (10 nmol). Organic and aqueous layers were separated by centrifugation at 2000×g for 5 min and the organic layer was collected. The aqueous layer was acidified (for metabolites such as LPA) by adding 5% formic acid, followed by the addition of 2 ml chloroform. The mixture was vortexed, and the organic layers were combined, dried down under N2 and dissolved in 100 μl chloroform, of which 30 μl was analyzed by LC-MS.
LC-MS analysis was performed by using an Agilent 1100 LC-MSD SL instrument. […] Mobile phase A was composed of a 95:5 ratio of water:methanol, and mobile phase B consisted of 2-propanol, methanol, and water in a 60:35:5 ratio. Solvent modifiers such as 0.1% formic acid and 0.1% ammonium hydroxide were used to assist ion formation as well as to improve the LC resolution in both positive and negative ionization modes, respectively. The flow rate for each run started at 0.1 ml/min for 5 min, to alleviate backpressure associated with injecting chloroform. The gradient started at 0% B and increased linearly to 100% B over the course of 45 min with a flow rate of 0.4 ml/min, followed by an isocratic gradient of 100% B for 17 min at 0.5 ml/min before equilibrating for 8 min at 0% B with a flow rate of 0.5 ml/min. MS analysis was performed with an electrospray ionization (ESI) source. The capillary voltage was set to 3.0 kV, and the fragmentor voltage was set to 100 V. The drying gas temperature was 350° C., the drying gas flow rate was 10 L/min, and the nebulizer pressure was 35 psi.
Lipidomic analysis was performed in both targeted and untargeted mode by LC-MS analysis. Standard lipid classes were quantitated by targeting using selected ion monitoring (SIM) (except for very high-abundance metabolites which were quantitated by untargeted analysis) and identities of metabolites were confirmed by coelution of metabolites with their respective standards and mass accuracy to within 10 ppm as determined with an accurate mass Agilent 6520 Accurate Mass QTOF-MS-MS. These lipids were quantified by measuring the area under the peak and were normalized to an internal standard (C12:0 MAGE in positive mode or C15:0 FFA in negative mode). […]

MAGL [3] = biological target: T4, MAGL (Homo sapiens, UniProt Q99685); assay: shRNA knockdown of MAGL, activity by ABPP and C20:4 MAG hydrolysis; assay type: cell-based; details: aggressive cancer lines, ABPP
T4 construct: endogenous in cells; host or cells: human cancer lines (C8161, MUM2B, MUM2C, SKOV3, OVCAR3, 231MFP, MCF7)
T4 sequence (Q99685 1-303): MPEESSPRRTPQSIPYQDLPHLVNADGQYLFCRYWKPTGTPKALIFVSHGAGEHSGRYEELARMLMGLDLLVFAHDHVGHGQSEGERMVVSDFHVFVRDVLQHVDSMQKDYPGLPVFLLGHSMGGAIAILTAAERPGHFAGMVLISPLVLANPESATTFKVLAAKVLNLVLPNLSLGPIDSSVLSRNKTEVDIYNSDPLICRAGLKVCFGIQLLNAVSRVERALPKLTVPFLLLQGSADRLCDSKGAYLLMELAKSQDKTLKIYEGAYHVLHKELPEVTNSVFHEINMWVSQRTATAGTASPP
Protocol: ABPP and hydrolytic activity assays of cancer cell proteomes. Identification and comparative quantitation of serine hydrolase activities from cancer cell proteomes by ABPP-MudPIT or gel-based ABPP was conducted as previously described using FP-biotin (5 μM) and FP-rhodamine (2 μM), respectively (Jessani et al., Proc. Natl. Acad. Sci. U.S.A 99:10335-10340, 2002; and Jessani et al., Nat. Methods 2:691-697, 2005). C20:4 MAG hydrolytic activity assays were performed as described previously (Blankman et al., Chem. Biol. 14:1347-1356, 2007). For ABPP experiments, cell lysate proteomes were treated with 2 μM FP-rhodamine for 30 min at room temperature (50 μl total reaction volume). Reactions were quenched with one volume of standard 4×SDS/PAGE loading buffer (reducing), separated by SDS/PAGE (10% acrylamide), and visualized in-gel with a Hitachi FMBio IIe flatbed fluorescence scanner (MiraiBio). Integrated band intensities were calculated for the labeled proteins and averaged from three independent cell samples to determine the level of each enzyme activity. IC50 values were determined from dose-response curves from three trials at each inhibitor concentration by using SigmaPlot 10.0. MAGL expression was also assessed by western blotting using standard procedures.
RNA interference studies in human cancer cell lines. […]

Row | Molecule | effect on ABHD6 in competitive ABPP screen (FIG. 1B) (ABHD6) | effect on FAAH in competitive ABPP screen (FIG. 1B) (FAAH) | effect on MAGL in competitive ABPP screen (FIG. 1B) (MAGL [1]) | FFA levels in shMAGL cells [2] | MAG levels in shMAGL cells [2] | other serine hydrolase activities (MAGL [3])
1 | O=C(Oc1ccc([N+](=O)[O-])cc1)N1CCN(C(c2ccc(F)cc2)c2ccc(F)cc2)CC1 [WWL162] | preserve potency | greatly reducing activity | preserve potency |  |  | 
2 | shMAGL1: short hairpin RNA oligonucleotide for MAGL, 5′-CAACTTTCAAGGTCCTTGC-3′ (SEQ ID NO:1) (expressed or natural sequence) |  |  |  | corresponding reductions | significant elevations | unaffected
